Where two headings read alike, the source gives them in different places.
What was measured:
[1] = biological target: GDP-bound HRAS wild-type protein (Homo sapiens, UniProt P01112); assay: Binding to HRAS by surface plasmon resonance (SPR), Single Cycle Kinetics; settings: for HRAS/KRAS (ratio of KD value for HRAS to KD value for KRAS): SPR, GDP-bound HRAS wild-type protein vs GDP-bound KRAS wild-type protein; for HRAS/KRAS (ratio of KD value with respect to GDP-bound HRAS wild-type protein to KD value with respect to KRAS): SPR KD ratio HRAS/KRAS, class symbols
Sequence of GDP-bound HRAS wild-type protein (P01112 whole entry): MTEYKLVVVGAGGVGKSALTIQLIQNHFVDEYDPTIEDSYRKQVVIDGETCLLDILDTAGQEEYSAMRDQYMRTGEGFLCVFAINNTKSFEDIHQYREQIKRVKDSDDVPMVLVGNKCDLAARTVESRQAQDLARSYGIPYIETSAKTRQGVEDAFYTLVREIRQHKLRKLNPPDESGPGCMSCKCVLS

[2] = biological target: GDP-bound KRAS wild-type protein (Homo sapiens, UniProt P01116); assay: Binding to KRAS by surface plasmon resonance (SPR), Single Cycle Kinetics; settings: GDP-bound KRAS wild-type protein, read-out: KRAS KD
Sequence of GDP-bound KRAS wild-type protein (P01116 whole entry): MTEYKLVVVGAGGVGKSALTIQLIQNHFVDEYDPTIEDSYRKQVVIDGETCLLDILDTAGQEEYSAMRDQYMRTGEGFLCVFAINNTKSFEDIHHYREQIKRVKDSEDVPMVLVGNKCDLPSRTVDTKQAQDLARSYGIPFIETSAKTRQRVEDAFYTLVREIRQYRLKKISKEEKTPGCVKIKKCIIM

[3] = biological target: GDP-bound NRAS wild-type protein (Homo sapiens, UniProt P01111); assay: Binding to NRAS by surface plasmon resonance (SPR), Single Cycle Kinetics; settings: for NRAS/KRAS (ratio of KD value for NRAS to KD value for KRAS): SPR, GDP-bound NRAS wild-type protein vs GDP-bound KRAS wild-type protein; for NRAS/KRAS (ratio of KD value with respect to GDP-bound NRAS wild-type protein to KD value with respect to KRAS): SPR KD ratio NRAS/KRAS, class symbols
Sequence of GDP-bound NRAS wild-type protein (P01111 whole entry): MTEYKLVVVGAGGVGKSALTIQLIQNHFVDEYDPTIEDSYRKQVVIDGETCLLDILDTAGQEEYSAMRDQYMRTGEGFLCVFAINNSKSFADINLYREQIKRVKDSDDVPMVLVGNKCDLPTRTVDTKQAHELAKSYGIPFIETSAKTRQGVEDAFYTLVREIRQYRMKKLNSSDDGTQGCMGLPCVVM

[4] = system: human lung cancer strain NCI-H441;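 also: cell proliferation inhibition after four days measured by CellTiter-Glo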
[5] = SPR Single Cycle Kinetics, 1:1 binding model
[6] = SPR, Single Cycle Kinetics, 1:1 binding model

Compound	HRAS/KRAS (ratio of KD value for HRAS to KD value for KRAS) [1]	Kd ([2]; SPR, Single Cycle Kinetics)	NRAS/KRAS (ratio of KD value for NRAS to KD value for KRAS) [3]	IC50 [4]	HRAS/KRAS (ratio of KD value with respect to GDP-bound HRAS wild-type protein to KD value with respect to KRAS) [1]	Kd [2, 5]	NRAS/KRAS (ratio of KD value with respect to GDP-bound NRAS wild-type protein to KD value with respect to KRAS) [3]	HRAS/KRAS (ratio of KD value for HRAS to KD value for KRAS) ([1]; KD ratio class)	Kd [2, 6]	NRAS/KRAS (ratio of KD value for NRAS to KD value for KRAS) ([3]; KD ratio class)
CC[C@H](C)[C@@H]1NC(=O)[C@H](CC)N(C)C(=O)C[C@@H](C(=O)N(C)C)N(C)C(=O)[C@H](C2CCCC2)N(C)C(=O)C2(CCC2)NC(=O)[C@@H]2C[C@@H](F)CN2C(=O)[C@H](CCc2cc(F)c(C(F)(F)F)c(F)c2)NC(=O)CN(C)C(=O)[C@H](Cc2ccc(C(F)(F)F)cc2)N2CC/C=C\C[C@@H](C2=O)N(C)C(=O)CN(C)C1=O [PP1131, (2S,8S,12R,14S,20S,23S,27S,30S,36S,38Z)-20-cyclopentyl-8-[2-[3,5-difluoro-4-(trifluoromethyl)phenyl]ethyl]-27-ethyl-12-fluoro-N,N,4,19,22,26,32,35-octamethyl-30-[(1S)-1-methylpropyl]-3,6,9,15,18,21,25,28,31,34,42-undecaoxo-2-[[4-(trifluoromethyl)phenyl]methyl]spiro[1,4,7,10,16,19,22,26,29,32,35-undecazatricyclo[34.5.1.0^10,14]dotetracont-38-ene-17,1′-cyclobutane]-23-carboxamide]	B (a compound having 3 or more and less than 10 is denoted as B)	0.025 nM	A (a compound having 10 or more and less than 20 is denoted as A)	32 nM	–	–	–	–	–	–
CCO[C@@H]1C[C@H]2C(=O)NC3(CC(C)(C)C3)C(=O)N(C)[C@@H](C3CCCCC3)C(=O)N(C)[C@H](C(=O)N(C)C)CC(=O)N(C)[C@@H](COC)C(=O)N[C@@H]([C@@H](C)CC)C(=O)N(C)CC(=O)N(C)[C@H]3C/C=C\CCN(C3=O)[C@@H](Cc3ccc(C(F)(F)F)cc3)C(=O)N(C)CC(=O)N[C@@H](CCc3ccc(Cl)c(Cl)c3)C(=O)N2C1 [PP2661]	–	–	–	13.4 nM	A (a compound having 10 or more and less than 20 is denoted as A)	0.27 nM	AA (a compound having 20 or more is denoted as AA)	–	–	–
CCO[C@@H]1C[C@H]2C(=O)NC3(CCC3)C(=O)N(C)[C@@H](C3CCCC3)C(=O)N(C)[C@H](C(=O)N3CCOCC3)CC(=O)N(C)[C@@H](CC(C)C)C(=O)N[C@@H]([C@@H](C)CC)C(=O)N3CC[C@H]3C(=O)N(C)[C@H]3C[C@@H](C)[C@@H](C)CN(C3=O)[C@@H](Cc3ccc(C(F)(F)F)cc3)C(=O)N(C)CC(=O)N[C@@H](CCc3cc(F)c(C(F)(F)F)c(F)c3)C(=O)N2C1 [PP1355]	–	–	–	10.2 nM	–	–	–	B (a compound having 3 or more and less than 10 is denoted as B)	0.16 nM	A (a compound having 10 or more and less than 20 is denoted as A)
CCC[C@H]1C(=O)N[C@@H]([C@@H](C)CC)C(=O)N(C)CC(=O)N(C)[C@H]2C/C=C\CCN(C2=O)[C@@H](CC2CCC(F)(F)CC2)C(=O)N(C)CC(=O)N[C@@H](CCc2cc(F)c(C(F)(F)F)c(F)c2)C(=O)N2C[C@H](OCC)C[C@H]2C(=O)NC2(CC(C)(C)C2)C(=O)N(C)[C@@H](C(CC)CC)C(=O)N(C)[C@H](C(=O)N(C)C)CC(=O)N1C [PP2489]	A (a compound having 10 or more and less than 20 is denoted as A)	0.55 nM	A (a compound having 10 or more and less than 20 is denoted as A)	30.5 nM	–	–	–	–	–	–
CCO[C@@H]1C[C@H]2C(=O)NC3(CCC3)C(=O)N(C)[C@@H](C(CC)CC)C(=O)N(C)[C@H](C(=O)N(C)C)CC(=O)N(C)[C@@H](CC(C)C)C(=O)N[C@@H]([C@@H](C)CC)C(=O)N(C)CC(=O)N(C)[C@H]3C/C=C\CCN(C3=O)[C@@H](CC3CCCCC3)C(=O)N(C)CC(=O)N[C@@H](CCc3cc(F)c(C(F)(F)F)c(F)c3)C(=O)N2C1 [PP1432]	–	–	–	51.3 nM	–	–	–	A (a compound having 10 or more and less than 20 is denoted as A)	0.61 nM	AA (a compound having 20 or more is denoted as AA)
CCC[C@H]1C(=O)N[C@@H]([C@@H](C)CC)C(=O)N(C)CC(=O)N(C)[C@H]2C/C=C\CCN(C2=O)[C@@H](Cc2ccc(C(F)(F)F)cc2)C(=O)N(C)CC(=O)N[C@@H](CCc2cc(F)c(Cl)c(F)c2)C(=O)N2C[C@H](OCC)C[C@H]2C(=O)NC2(CCC2)C(=O)N(C)[C@@H](C(CC)CC)C(=O)N(C)[C@H](C(=O)N(C)C)CC(=O)N1C [PP1231]	–	–	–	23.1 nM	–	–	–	A (a compound having 10 or more and less than 20 is denoted as A)	0.56 nM	AA (a compound having 20 or more is denoted as AA)
CCO[C@@H]1C[C@H]2C(=O)NC3(CCC3)C(=O)N(C)[C@@H](C3CCCC3)C(=O)N(C)[C@H](C(=O)N(C)C)CC(=O)N(C)[C@@H](Cc3ccccc3)C(=O)N[C@@H]([C@@H](C)CC)C(=O)N(C)CC(=O)N(C)[C@H]3CCCCCN(C3=O)[C@@H](Cc3ccc(F)cc3)C(=O)N(C)CC(=O)N[C@@H](CCc3cc(F)c(C(F)(F)F)c(F)c3)C(=O)N2C1 [PP1195]	B (a compound having 3 or more and less than 10 is denoted as B)	0.074 nM	B (a compound having 3 or more and less than 10 is denoted as B)	18.3 nM	–	–	–	–	–	–
CC[C@H](C)[C@@H]1NC(=O)[C@H](COC)N(C)C(=O)C[C@@H](C(=O)N(C)C)N(C)C(=O)[C@H](C2CCCC2)N(C)C(=O)C2(CC(C)(C)C2)NC(=O)[C@@H]2C[C@H](C)CN2C(=O)[C@H](CCc2ccc(C(F)(F)F)c(OC)c2)NC(=O)CN(C)C(=O)[C@H](Cc2ccc(C)cc2)N2CC/C=C\C[C@@H](C2=O)N(C)C(=O)[C@@H]2C[C@H](OC)CN2C1=O [PP2390]	B (a compound having 3 or more and less than 10 is denoted as B)	0.28 nM	A (a compound having 10 or more and less than 20 is denoted as A)	96.7 nM	–	–	–	–	–	–
CC[C@H](C)[C@@H]1NC(=O)[C@H](CC)N(C)C(=O)C[C@@H](C(=O)N2CCOCC2)N(C)C(=O)[C@H](C2CCCC2)N(C)C(=O)C2(CCCC2)NC(=O)[C@@H]2CCCN2C(=O)[C@H](CCc2ccc(C(F)(F)F)c(Cl)c2)NC(=O)CN(C)C(=O)[C@H](Cc2ccc(C(F)(F)F)cc2)N2C[C@H](C)CC[C@@H](C2=O)N(C)C(=O)CN(C)C1=O [PP1337]	–	–	–	29.8 nM	–	–	–	B (a compound having 3 or more and less than 10 is denoted as B)	0.17 nM	B (a compound having 3 or more and less than 10 is denoted as B)
CC[C@H](C)[C@@H]1NC(=O)[C@H](COC)N(C)C(=O)C[C@@H](C(=O)N(C)C)N(C)C(=O)[C@H](C2CCCC2)N(C)C(=O)C2(CC(C)(C)C2)NC(=O)[C@@H]2C[C@@H](OC3CCC3)CN2C(=O)[C@H](CCc2cc(F)c(C(F)(F)F)c(F)c2)NC(=O)CN(C)C(=O)[C@H](CC2CCC(F)(F)CC2)N2CC/C=C\C[C@@H](C2=O)N(C)C(=O)CN(C2CC2)C1=O [PP2622]	–	–	–	43.8 nM	B (a compound having 3 or more and less than 10 is denoted as B)	0.53 nM	A (a compound having 10 or more and less than 20 is denoted as A)	–	–	–
CCC[C@H]1C(=O)N[C@@H]([C@@H](C)CC)C(=O)N(C)CC(=O)N(C)[C@H]2C/C=C\CCN(C2=O)[C@@H](Cc2ccc(C(F)(F)F)cc2)C(=O)N(C)CC(=O)N[C@@H](CCc2ccc(Cl)c(Cl)c2)C(=O)N2C[C@H](OCC)C[C@H]2C(=O)NC2(CCC2)C(=O)N(C)[C@@H](C2CCCC2)C(=O)N(C)[C@H](C(=O)N(C)C)CC(=O)N1C [PP1250]	–	–	–	18.7 nM	–	–	–	A (a compound having 10 or more and less than 20 is denoted as A)	0.19 nM	AA (a compound having 20 or more is denoted as AA)
CC[C@H](C)[C@@H]1NC(=O)[C@H](COC)N(C)C(=O)C[C@@H](C(=O)N(CC)CC)N(C)C(=O)[C@H](C2CCCC2)N(C)C(=O)C2(CC(C)(C)C2)NC(=O)[C@@H]2C[C@H](C)CN2C(=O)[C@H](CCc2ccc(C(F)(F)F)c(Cl)c2)NC(=O)CN(C)C(=O)[C@H](Cc2ccc(C)cc2)N2CC/C=C\C[C@@H](C2=O)N(C)C(=O)CN(C)C1=O [PP2399]	A (a compound having 10 or more and less than 20 is denoted as A)	0.31 nM	AA (a compound having 20 or more is denoted as AA)	7.7 nM	–	–	–	–	–	–
